# Experimental data as given in patent US20260069728A1, “MULTI-TARGETING COMPOUND AND USE THEREOF” (Chengdu Shetai Medical Technology Co., Ltd., priority 2023, published 2026).
# Like-named read-outs stand apart in the source and are kept apart here.
# Columns and labels:
# [1] = Isoelectric point (PI) measurement; format: physicochemical; conditions: unlabeled compound
# [2] = test system: HUTU-80 human duodenal adenocarcinoma cell line; assay: Cell uptake and inhibition assay, HUTU-80; format: cell-based
# Method: The cell lines involved in the cell experiments in the test examples include: SUM149PT human breast cancer cell line, HUTU-80 human duodenal adenocarcinoma cell line, and U-118 MG human brain astrocytoma/glioblastoma cell line.
# HUTU-80: Complete medium was formulated using DMEM high-glucose medium, 10% FBS, and a penicillin-streptomycin solution. The cells were cultured in a constant temperature incubator at 37° C. with 5% CO2. The culture medium was regularly replaced, and the cells were passaged. The culture medium was generally changed every 2 to 3 days. The growth of the tumor cells was observed daily under a microscope, including monitoring cell growth status, checking for adherence, examining cell morphology for any abnormalities, checking for contamination, and observing medium color for any abnormalities. Cells were passaged when they reached 80-90% confluence.
# When cell confluence in the culture flask reached 80%, the cells were digested and centrifuged, and the supernatant was removed. An appropriate amount of medium was added to dilute so that each well contained 500 μL of medium for plating. After thorough mixing by pipetting, the cell suspension was seeded into a 24-well plate at a density of 5×10^5 cells per well. The plate was then placed into the incubator for continued growth. The cells were ready for cellular experiments when they reached 80% confluence.
# (1) The cell uptake assay established four incubation time points: 15, 30, 60, and 120 minutes, respectively. For each time point, four groups were set up: non-inhibition group, a first single inhibition group (FAP single inhibition), a second single inhibition group (CXCR4/GRPR/αvβ3 single inhibition), and a dual inhibition group (FAP inhibitor+CXCR4/GRPR/αvβ3 inhibitor). Each group at each time point was set up with 3 triplicate wells.
# (§1) (2) Cells were plated into a 24-well plate according to the cell plating procedure described above.
# (3) The original culture medium was removed from the 24-well plate. Then, 400 μL of 100 mg/mL skimmed milk solution was added to each well for blocking for one hour. After removing the skimmed milk solution, each of the wells was washed three times by adding 400 μL of PBS solution. Subsequently, 146 μL of FBS-free medium was added to each well. […]
# (6) The radioactivity in the cells was measured using a γ counter. […]
# [3] = test system: HUTU-80 human duodenal adenocarcinoma cell line; assay: Cell saturation binding assay, HUTU-80; conditions: 68Ga-labeled compound
# Method: (1) For the cell saturation binding assay, a total of 8 radiolabeled ligand concentrations were set at intervals within the anticipated range. For each concentration, there were 3 groups: the non-inhibition group, the first single inhibition group (FAP single inhibition group), and the second single inhibition group (CXCR4/GRPR/αvβ3 single inhibition group). For each concentration and each group, 3 replicate wells were established.
# as §1
# (3) The original culture medium was removed from the 24-well plate. Then, 400 μL of 100 mg/mL skimmed milk solution was added to each well for blocking for one hour. After removing the skimmed milk solution, each of wells was washed three times by adding 400 μL of PBS solution. Subsequently, 146 μL of FBS-free medium was added to each well. Next, the non-inhibition group received 4 μL of cold PBS per well, while the first single inhibition group and the second single inhibition group received the following additions per well according to Table 4: 2 μL of non-radiolabeled first single inhibitor solution and 2 μL of cold PBS; 2 μL of non-radiolabeled second single inhibitor solution and 2 μL of cold PBS. The plate was then incubated at room temperature for one hour.
# (4) The ligands were radiolabeled with 68Ga using the labeling method described previously. Different volumes of FBS-free medium were added to formulate the radioligand systems at corresponding concentrations. Then, 50 μL of the corresponding concentration of the radioligand system was added to each well.
# (5) The supernatant was removed, and the wells were washed three times with 400 μL of PBS. 200 μL of IM NaOH solution was added to each well for cell lysis. […] Each well was washed once with 400 μL of PBS solution, and the washings were sequentially added to the corresponding radioimmunoassay tubes.
# (6) Radioactivity in the cells was measured using a γ counter. The equilibrium dissociation constant (KD) was obtained by fitting the curve using nonlinear regression analysis in GraphPad Prism software. KD is the drug concentration that causes half of the maximum effect (50% receptor occupancy).
smiles,measurement,setting,value
CC(C)CC(CC(C)C)NC(=O)[C@H](Cc1cnc[nH]1)NC(=O)CNC(=O)C(NC(=O)[C@H](C)NC(=O)[C@H](Cc1c[nH]c2ccccc12)NC(=O)[C@H](CCC(N)=O)NC(=O)[C@@H](Cc1ccccc1)NC(=O)COCC(=O)Nc1ccc(CNC(=O)COCCOCCNC(=O)COCCOCCNC(=O)[C@H](CCCCNC(=O)CN2CCN(CC(=O)O)CCN(CC(=O)O)CCN(CC(=O)O)CC2)NC(=O)CCC(=O)N2CCN(CCCOc3ccc4nccc(C(=O)NCC(=O)N5CC(F)(F)C[C@H]5C#N)c4c3)CC2)cc1)C(C)C (stereo partly drawn) [SDYD03],PI range of series of peaks,[1],5.992-7.095
same,cell uptake over incubation time (in words),[2]; 15-120 minutes,increased slowly and reached a plateau from 15 to 120 minutes
same,"cell uptake, comparison of non-inhibition, FAP single, GRPR single and dual inhibition groups (in words)",[2]; FAPI-04 and BBN as inhibitors,cell uptake in the non-inhibition group was consistently higher than that in the other three groups
same,"inhibition rate, comparison of inhibition groups (in words)",[2]; FAPI-04 and BBN as inhibitors,inhibition rate of the dual inhibition group was higher than that of the FAP single inhibition group and the GRPR single inhibition group
same,specific binding to FAP and GRPR (in words),[2]; conclusion from inhibition groups,can specifically bind to both FAP and GRPR
same,KD values / binding affinity to the receptors (in words),[3],relatively low KD values
same,Kd,"[3]; BBN solution (GRPR inhibitor), read-out: KD value, Second single inhibition group (CXCR4/GRPR/αvβ3 single inhibition)",1.76 ± 0.224 nM
same,Kd,"[3]; FAPI-04 solution, read-out: KD value, First single inhibition group (FAP single inhibition)",0.884 ± 0.152 nM
same,Kd,"[3]; read-out: KD value, Non-inhibition group",1.23 ± 0.331 nM
